Measured values reported in PMC10910475, “Synthesis and biological profile of 2,3-dihydro[1,3]thiazolo[4,5-b]pyridines, a novel class of acyl-ACP thioesterase inhibitors” (Beilstein Journal of Organic Chemistry, 2024).

Target: T1, LpFAT A (FAT A from LEMPA; acyl-ACP thioesterase) (Lemna aequinoctialis, UniProt Z9A7P1QTQ5)
T1 construct: chloroplast transit peptide replaced by N-terminal 6xHis-tag; pET24; E. coli BL21Star(DE3); Ni-NTA purified
T1 sequence (Z9A7P1QTQ5 10-320): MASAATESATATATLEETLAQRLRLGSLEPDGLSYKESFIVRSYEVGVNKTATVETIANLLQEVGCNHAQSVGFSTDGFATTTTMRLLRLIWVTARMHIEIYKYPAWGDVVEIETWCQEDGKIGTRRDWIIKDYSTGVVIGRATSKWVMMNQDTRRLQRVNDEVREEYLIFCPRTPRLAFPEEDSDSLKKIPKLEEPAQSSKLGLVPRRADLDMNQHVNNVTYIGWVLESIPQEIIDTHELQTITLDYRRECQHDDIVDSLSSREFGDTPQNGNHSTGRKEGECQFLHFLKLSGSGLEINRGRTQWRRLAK
Experiment: fluorescence polarization competition with fluorescent tracer
Type: binding
Conditions: 25 mM potassium phosphate pH 7.3, 200 mM NaCl, 0.01% Triton X-100, 2 nM tracer, room temperature; value is negative log
Excerpt: fluorescence polarization competition with fluorescent tracer on LpFAT A (FAT A from LEMPA; acyl-ACP thioesterase)

Row | Structure (SMILES) | pI50
1 | Cc1cc2scnc2nc1-c1ccccc1F [compound 5, 5-(2-fluorophenyl)-6-methyl[1,3]thiazolo[4,5-b]pyridine, reference compound] | 7.2
2 | CC(=O)N1CSc2cc(C)c(-c3ccccc3C)nc21 [16e] | 4.1
3 | Cc1ccsc1C1=NOC(C)(COCc2c(F)cccc2F)C1 (centres unmarked) [compound 2, methiozolin, reference compound] | 7.1
4 | Fc1ccccc1-c1nc2c(cc1Br)SCN2 [13b, 6-bromo-5-(2-fluorophenyl)-2,3-dihydro[1,3]thiazolo[4,5-b]pyridine] | 7.3
5 | Cc1cc2c(nc1-c1ccccc1)NCS2 [7a] | 5.9
6 | Cc1ccccc1-c1nc2c(cc1C)SCN2C(=O)C(C)C [16f] | 4.8
7 | BN1CSc2cc(Br)c(-c3ccccc3C)nc21 [17d, aminoborane 17d] | 4.8
8 | Cc1ccccc1COC1CC2(C(C)C)CCC1(C)O2 (centres unmarked) [compound 1, cinmethylin, reference compound] | 6.8
9 | Cc1cc2c(nc1-c1ccccc1)N(C(=O)C(C)C)CS2 [16b] | 4.7
10 | Cc1ccccc1-c1nc2c(cc1C)SCN2 [7c] | 6.3
11 | CC(=O)N1CSc2cc(Br)c(-c3ccccc3)nc21 [14a] | 5.5
12 | CC(=O)N1CSc2cc(C)c(-c3ccccc3)nc21 [16a] | 5.5
13 | Cc1cc2c(nc1-c1ccccc1F)N(C(=O)C(C)C)CS2 [16d] | 4.7
14 | Cc1cc2c(nc1-c1ccccc1F)NCS2 [7b, 5-(2-Fluorophenyl)-6-methyl-2,3-dihydro[1,3]thiazolo[4,5-b]pyridine] | 6.1
15 | Brc1cc2c(nc1-c1ccccc1)NCS2 [13a, 6-Bromo-5-phenyl-2,3-dihydrothiazolo[4,5-b]pyridine] | 5.7
16 | Cc1ccccc1-c1nc2c(cc1Br)SCN2B1NB(N)N1 [17e, aminoborane 17e] | < 4.0
17 | CC(C)C(=O)N1CSc2cc(Br)c(-c3ccccc3F)nc21 [14b] | 4.7
18 | Cc1ccccc1-c1nc2c(cc1Br)SCN2 [13c, 6-bromo-5-(2-tolyl)-2,3-dihydrothiazolo[4,5-b]pyridine] | 4.5
19 | CC(=O)N1CSc2cc(Br)c(-c3ccccc3C)nc21 [14c] | 4.3
20 | CC(=O)N1CSc2cc(C)c(-c3ccccc3F)nc21 [16c, 1-[5-(2-fluorophenyl)-6-methyl[1,3]thiazolo[4,5-b]pyridin-3(2H)-yl]ethanone] | 5.3
